# Like-named read-outs stand apart in the source and are kept apart here.
# Experiments:
# murine leukaemia, L 1210 = assay: Cytotoxicity, Microculture Tetrazolium Assay, L 1210; format: cell-based; conditions: Mus musculus, L1210, 48 h, read-out: IC50 (cytotoxicity)
# Source text: (§1) Three cell lines were used:
# (§2) The cells are distributed on microplates and exposed to the cytotoxic compounds.
# [1] = tested on: human pulmonary carcinoma, A 549; assay: Cytotoxicity, Microculture Tetrazolium Assay, A 549; format: cell-based; conditions: for IC50: Homo sapiens, A549, 96 h, read-out: IC50 (cytotoxicity)
# Source text: as §1, §2
# murine melanoma, B 16 = assay: Cytotoxicity, Microculture Tetrazolium Assay, B 16; format: cell-based; conditions: for IC50: Mus musculus, read-out: IC50 (cytotoxicity)
# Source text: as §1, §2
# P 388 (murine leukaemia) = assay: In vivo anti-tumor activity, P 388 i.p.; design: species or system female BDF1 mice; conditions: for Long-term survivors/total no. of mice: survivors at 60 days
# Protocol: Line P 388 (murine leukaemia) is supplied by The National Cancer Institute (Frederick, USA). The tumor cells (10^6 cells) are inoculated on day 0 into the peritoneal cavity of female BDF1 mice (Iffa-Credo, France) weighing from 18 to 20 g (groups of 6 or 7 animals).
# The products are administered intravenously on day 1 or on days 1, 5 and 9 at the doses indicated.
# The anti-tumor activity is expressed as % T/C: [formula]
# The animals surviving at 60 days (long-term survivors) are indicated.
# B 16 (murine melanoma) = assay: In vivo anti-tumor activity, B 16 i.p.; design: species or system BDF1 mouse; conditions: for % T/C / Long-term survivors/total no. of mice: D1-9, i.p.; for Long-term survivors/total no. of mice: survivors at 90 days
# Protocol: Line B 16 (murine melanoma) is supplied by The National Cancer Institute (Frederick, USA). The tumor is maintained by successive subcutaneous grafts of tumor fragments. On day 0, the tumors are broken up and homogenised in 0.9% NaCl (1 g, of tumor in 10 ml) and 0.5 ml of the homogenate is injected into the peritoneal cavity of each BDF1 mouse. The products are administered intraperitoneally at the doses indicated once a day for 9 days (D1-9).
# The anti-tumor activity is expressed as % T/C, as defined above. The animals surviving at 90 days (long-term survivors) are indicated.
# [2] = D1,5,9, i.v., optimum dose 10 mg/kg
# [3] = D1, i.v., optimum dose 10 mg/kg
# [4] = B16, 96 h, B 16, 4 days incubation
# [5] = D1,5,9, i.v., optimum dose 80 mg/kg
# [6] = D1, i.v., optimum dose 80 mg/kg
structure (smiles),measurement,setting,value
"COc1cccc2c1C(=O)c1c(O)c3c(c(O)c1C2=O)C[C@@](O)(C(=O)CO)C[C@@H]3O[C@H]1C[C@H](N)[C@H](O)[C@H](C)O1 [Reference B, adriamycin, reference compound]",IC50,"murine leukaemia, L 1210",24.3 nM
same,IC50,[1],39.4 nM
same,IC50,"murine melanoma, B 16; 96 h",6.8 nM
"Cc1c2c(C(=O)NCCN(C)C)nccc2c(C)c2c1c1cc(OC(=O)CCCCC(=O)Oc3ccc4c(c3)c3c(C)c5c(C(=O)NCCN(C)C)nccc5c(C)c3n4C)ccc1n2C [Example 1, bis[1-(2-dimethylaminoethylcarbamoyl)-5,6, 11-trimethyl-6H-pyrido[4,3-b]carbazol-9-yl] ester of hexanedloic acid]",IC50,"murine leukaemia, L 1210; L 1210, 2 days incubation",73.5 nM
same,% T/C,P 388 (murine leukaemia); [2],> 582%
same,Long-term survivors/total no. of mice,P 388 (murine leukaemia); [2],3/6
same,% T/C,P 388 (murine leukaemia); [3],252%
same,Long-term survivors/total no. of mice,P 388 (murine leukaemia); [3],1/6
same,Anti-tumor activity compared with reference product A,"P 388 (murine leukaemia); leukaemia P 388 model, in words","more potent than, and as active as, reference product A"
same,% T/C,B 16 (murine melanoma); optimum dose 5 mg/kg,429%
same,Long-term survivors/total no. of mice,B 16 (murine melanoma); optimum dose 5 mg/kg,3/7
same,Long-term survivors,"B 16 (murine melanoma); melanoma B 16 model, at the optimum dose",3 long-term survivors
same,Anti-tumor activity,"B 16 (murine melanoma); melanoma B 16 model, in words",very active
same,Cytotoxicity compared with reference products A and B,"[1]; A 549, in words",more cytotoxic than reference products A and B
same,Cytotoxicity compared with line L 1210,"[1]; A 549 versus L 1210, in words",greater for lines B 16 and A 549 than for line L 1210
same,IC50,"[1]; A 549, 4 days incubation",17.6 nM
same,Cytotoxicity compared with reference products A and B,"murine melanoma, B 16; B 16, in words",more cytotoxic than reference products A and B
same,Cytotoxicity compared with line L 1210,"murine melanoma, B 16; B 16 versus L 1210, in words",greater for lines B 16 and A 549 than for line L 1210
same,IC50,"murine melanoma, B 16; [4]",3 nM
"Cc1c2ccnc(C(=O)NCCN(C)C)c2cc2c3cc(O)ccc3n(C)c12 [Reference A, 1-(N,N-dimethylaminoethylaminocarbamoyl)-5,6-diiethyl-9-hydroxy-6H-pyrido-[4,3-b]carbazole, reference compound]",IC50,"murine leukaemia, L 1210; L 1210, 2 days incubation",7.8 nM
same,% T/C,P 388 (murine leukaemia); [5],320%
same,Long-term survivors/total no. of mice,P 388 (murine leukaemia); [5],2/6
same,% T/C,P 388 (murine leukaemia); [6],221%
same,Long-term survivors/total no. of mice,P 388 (murine leukaemia); [6],0/6
same,% T/C,B 16 (murine melanoma); optimum dose 10 mg/kg,190%
same,Long-term survivors/total no. of mice,B 16 (murine melanoma); optimum dose 10 mg/kg,0/7
same,Long-term survivors,"B 16 (murine melanoma); melanoma B 16 model, in words",none
same,IC50,"[1]; A 549, 4 days incubation",30.5 nM
same,IC50,"murine melanoma, B 16; [4]",5.1 nM
